{"source": "patent US10888547B2", "about": "“Amorphous and a crystalline form of genz 112638 hemitartrate as inhibitor of glucosylceramide synthase” (Genzyme Corporation, priority 2009, dated 2021)", "key": {"[1]": {"biological_target": "T1, Non-lysosomal glucosylceramidase (GBA2) (Homo sapiens, UniProt Q9HCG7)", "T1 construct": "were assayed in intact human cells using C6-NBD-glucosylceramide as substrate; endogenous in cells", "T1 sequence (Q9HCG7 1-927)": "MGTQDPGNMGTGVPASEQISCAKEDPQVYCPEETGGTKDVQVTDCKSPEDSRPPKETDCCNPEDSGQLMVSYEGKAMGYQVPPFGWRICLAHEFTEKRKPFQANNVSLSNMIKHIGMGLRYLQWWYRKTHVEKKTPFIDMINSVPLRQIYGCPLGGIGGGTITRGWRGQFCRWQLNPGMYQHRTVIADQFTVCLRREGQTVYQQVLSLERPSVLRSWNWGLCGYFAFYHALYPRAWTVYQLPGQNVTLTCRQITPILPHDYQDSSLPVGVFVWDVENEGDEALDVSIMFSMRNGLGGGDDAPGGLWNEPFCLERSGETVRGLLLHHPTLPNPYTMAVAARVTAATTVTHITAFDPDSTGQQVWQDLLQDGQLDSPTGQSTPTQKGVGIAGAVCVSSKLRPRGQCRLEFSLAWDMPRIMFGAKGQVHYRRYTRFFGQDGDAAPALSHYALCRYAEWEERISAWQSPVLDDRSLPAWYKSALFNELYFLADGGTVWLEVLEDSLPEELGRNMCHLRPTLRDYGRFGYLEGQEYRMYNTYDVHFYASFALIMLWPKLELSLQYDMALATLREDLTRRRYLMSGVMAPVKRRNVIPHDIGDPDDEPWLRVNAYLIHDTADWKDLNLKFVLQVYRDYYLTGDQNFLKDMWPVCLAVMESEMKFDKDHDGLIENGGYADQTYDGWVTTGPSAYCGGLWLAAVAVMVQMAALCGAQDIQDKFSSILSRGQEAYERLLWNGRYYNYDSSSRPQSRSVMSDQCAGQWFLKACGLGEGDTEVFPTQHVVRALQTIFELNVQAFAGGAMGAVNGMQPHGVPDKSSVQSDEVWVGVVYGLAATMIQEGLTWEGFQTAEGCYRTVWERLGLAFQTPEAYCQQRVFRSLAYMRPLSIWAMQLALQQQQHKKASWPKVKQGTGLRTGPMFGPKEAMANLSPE", "experiment": "Non-lysosomal glucosylceramidase in intact human cells, C6-NBD-glucosylceramide substrate", "type": "cell-based", "settings": "read-out: Enzyme specificities, IC50: Non-lysosomal glucosylceramidase (GBA2)", "experimental": "Non-lysosomal glucosylceramidase and lysosomal glucocerebrosidase were assayed in intact human cells using C6-NBD-glucosylceramide as substrate (see H. S. Overkleeft, et al. J. Biol. Chem. 273 (1998) 26522-26527, the entire teachings of which are incorporated herein by reference). Conduritol β epoxide (a specific inhibitor of lysosomal glucocerebrosidase) was used to differentiate lysosomal versus the non-lysosomal activity. Glucocerebrosidase activity was also measured by fluorescence-activated cell sorting (FACS). […] Cells were immediately chilled on ice and the fluorescence quantitated is above."}, "[2]": {"biological_target": "T2, sucrase (Rattus norvegicus, UniProt P23739)", "T2 construct": "The intestinal glycosidase enzymes were assayed in rat tissue homogenates; from tissue; host or cells: rat intestinal tissue homogenate", "T2 sequence (P23739 whole entry)": "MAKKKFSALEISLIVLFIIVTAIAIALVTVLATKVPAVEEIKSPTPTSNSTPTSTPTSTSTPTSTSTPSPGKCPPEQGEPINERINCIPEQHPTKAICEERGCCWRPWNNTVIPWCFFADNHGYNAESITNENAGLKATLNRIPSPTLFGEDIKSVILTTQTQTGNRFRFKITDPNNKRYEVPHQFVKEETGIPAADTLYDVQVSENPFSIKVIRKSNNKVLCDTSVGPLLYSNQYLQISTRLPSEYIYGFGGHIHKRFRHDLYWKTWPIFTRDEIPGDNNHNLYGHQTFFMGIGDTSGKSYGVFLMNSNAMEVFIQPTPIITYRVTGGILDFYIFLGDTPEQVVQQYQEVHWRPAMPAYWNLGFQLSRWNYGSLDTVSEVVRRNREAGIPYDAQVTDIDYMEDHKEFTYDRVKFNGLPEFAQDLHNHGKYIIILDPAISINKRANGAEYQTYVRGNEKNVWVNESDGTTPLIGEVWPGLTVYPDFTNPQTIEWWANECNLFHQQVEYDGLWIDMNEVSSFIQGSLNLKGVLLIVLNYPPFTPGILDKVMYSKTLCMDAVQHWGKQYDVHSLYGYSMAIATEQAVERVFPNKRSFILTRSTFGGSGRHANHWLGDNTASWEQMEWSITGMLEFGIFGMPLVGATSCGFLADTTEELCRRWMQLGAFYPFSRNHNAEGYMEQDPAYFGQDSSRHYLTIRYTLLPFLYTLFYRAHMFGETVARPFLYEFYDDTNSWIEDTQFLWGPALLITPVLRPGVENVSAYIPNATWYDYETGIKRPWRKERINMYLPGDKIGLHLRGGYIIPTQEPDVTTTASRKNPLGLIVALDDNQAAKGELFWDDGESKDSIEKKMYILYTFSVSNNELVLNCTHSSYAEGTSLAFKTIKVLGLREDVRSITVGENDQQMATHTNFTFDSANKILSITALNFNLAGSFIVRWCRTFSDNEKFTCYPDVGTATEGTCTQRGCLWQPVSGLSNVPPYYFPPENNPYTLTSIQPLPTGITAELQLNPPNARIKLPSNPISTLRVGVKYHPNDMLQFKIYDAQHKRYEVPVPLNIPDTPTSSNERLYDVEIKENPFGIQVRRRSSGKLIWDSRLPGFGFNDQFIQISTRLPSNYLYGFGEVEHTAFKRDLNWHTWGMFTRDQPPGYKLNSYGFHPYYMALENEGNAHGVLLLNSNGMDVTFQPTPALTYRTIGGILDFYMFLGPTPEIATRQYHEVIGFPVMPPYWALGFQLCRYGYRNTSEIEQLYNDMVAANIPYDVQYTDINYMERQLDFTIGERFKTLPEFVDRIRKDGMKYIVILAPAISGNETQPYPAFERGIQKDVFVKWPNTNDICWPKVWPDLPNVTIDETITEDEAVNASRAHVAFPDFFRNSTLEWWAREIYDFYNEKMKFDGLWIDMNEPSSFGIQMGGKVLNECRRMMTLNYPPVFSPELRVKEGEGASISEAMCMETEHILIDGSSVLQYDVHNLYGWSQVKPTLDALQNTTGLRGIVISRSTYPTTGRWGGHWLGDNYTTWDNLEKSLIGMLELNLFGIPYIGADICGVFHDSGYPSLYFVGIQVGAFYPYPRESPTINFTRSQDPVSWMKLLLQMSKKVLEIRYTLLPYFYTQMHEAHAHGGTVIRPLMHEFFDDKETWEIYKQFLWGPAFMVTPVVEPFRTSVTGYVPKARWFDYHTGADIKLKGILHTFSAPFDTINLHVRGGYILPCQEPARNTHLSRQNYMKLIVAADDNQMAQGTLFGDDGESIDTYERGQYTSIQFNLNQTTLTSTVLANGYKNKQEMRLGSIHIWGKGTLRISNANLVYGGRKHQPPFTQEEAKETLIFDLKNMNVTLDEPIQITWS", "experiment": "Intestinal glycosidase assay in rat tissue homogenates", "type": "biochemical", "experimental": "(§1) The specificity of Formula (I) Hemitartrate was evaluated in a series of in vitro cell-based and cell-free assays. The intestinal glycosidase enzymes were assayed in rat tissue homogenates (see U. Andersson, et al., Biochem. Pharm. 59 (2000) 821-829, the entire teachings of which are incorporated herein by reference), and the glycogen debranching enzyme was assayed in a cell free assay as described (see U. Andersson, et al., Biochem. Pharm. 67 (2004) 697-705, the entire teachings of which are incorporated herein by reference)."}, "[3]": {"test_system": "GM1 in K562 cells", "experiment": "Flow cytometry of cell surface GM1 in intact cells", "type": "cell-based", "settings": "for IC50: Homo sapiens", "excerpt": "(§2) Since […] the first and rate-limiting step in the biosynthesis of glycosphingolipids, a flow cytometry assay that measured cell surface levels of GM 1 and GM3 was used to indirectly assess the activity of the inhibitor in intact cells."}, "[4]": {"test_system": "GM3 in B16/F10 cells", "experiment": "Flow cytometry of cell surface GM3 in intact cells", "type": "cell-based", "excerpt": "as §2"}, "[5]": {"biological_target": "glycogen debranching enzyme (α-1,6-glucosidase) (Homo sapiens, UniProt P35573)", "sequence (P35573 whole entry, species assumed)": "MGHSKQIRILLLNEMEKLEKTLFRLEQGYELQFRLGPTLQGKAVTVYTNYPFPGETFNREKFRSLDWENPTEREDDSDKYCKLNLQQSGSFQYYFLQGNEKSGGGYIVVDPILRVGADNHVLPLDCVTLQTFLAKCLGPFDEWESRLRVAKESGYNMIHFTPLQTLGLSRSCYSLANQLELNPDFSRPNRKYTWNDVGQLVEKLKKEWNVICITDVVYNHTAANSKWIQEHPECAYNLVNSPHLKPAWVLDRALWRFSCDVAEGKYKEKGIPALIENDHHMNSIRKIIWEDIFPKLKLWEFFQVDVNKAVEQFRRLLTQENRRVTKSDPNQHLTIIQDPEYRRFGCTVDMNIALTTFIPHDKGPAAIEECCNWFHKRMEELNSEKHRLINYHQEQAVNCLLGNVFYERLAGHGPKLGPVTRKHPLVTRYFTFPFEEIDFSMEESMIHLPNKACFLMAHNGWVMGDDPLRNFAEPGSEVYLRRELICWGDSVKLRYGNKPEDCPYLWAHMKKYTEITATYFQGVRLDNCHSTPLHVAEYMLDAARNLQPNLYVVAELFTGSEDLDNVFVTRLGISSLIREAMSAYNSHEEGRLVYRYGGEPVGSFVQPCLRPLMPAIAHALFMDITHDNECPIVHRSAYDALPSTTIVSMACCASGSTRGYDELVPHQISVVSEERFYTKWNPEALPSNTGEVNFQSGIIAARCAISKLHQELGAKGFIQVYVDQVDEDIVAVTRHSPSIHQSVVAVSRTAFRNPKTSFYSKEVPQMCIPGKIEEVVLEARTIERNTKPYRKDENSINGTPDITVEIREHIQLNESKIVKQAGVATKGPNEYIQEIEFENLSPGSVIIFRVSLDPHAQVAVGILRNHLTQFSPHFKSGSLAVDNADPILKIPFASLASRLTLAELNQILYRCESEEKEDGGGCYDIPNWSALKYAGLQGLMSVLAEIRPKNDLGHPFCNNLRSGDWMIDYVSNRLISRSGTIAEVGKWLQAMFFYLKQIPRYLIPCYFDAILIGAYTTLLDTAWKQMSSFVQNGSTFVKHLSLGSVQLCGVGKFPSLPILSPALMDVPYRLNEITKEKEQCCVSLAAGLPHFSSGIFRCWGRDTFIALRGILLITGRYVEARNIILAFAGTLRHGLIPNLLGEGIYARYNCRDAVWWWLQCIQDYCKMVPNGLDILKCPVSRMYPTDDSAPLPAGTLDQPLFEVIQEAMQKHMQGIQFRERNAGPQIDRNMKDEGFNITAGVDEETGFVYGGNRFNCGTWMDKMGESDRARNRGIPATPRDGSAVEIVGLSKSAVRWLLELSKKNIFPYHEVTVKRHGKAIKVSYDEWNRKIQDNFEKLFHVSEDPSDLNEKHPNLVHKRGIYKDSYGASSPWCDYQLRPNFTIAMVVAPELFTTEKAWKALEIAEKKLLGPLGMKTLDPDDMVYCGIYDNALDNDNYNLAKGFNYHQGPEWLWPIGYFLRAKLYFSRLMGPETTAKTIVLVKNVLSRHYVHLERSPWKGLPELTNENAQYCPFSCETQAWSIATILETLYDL", "experiment": "Glycogen debranching enzyme cell free assay", "type": "biochemical", "experimental": "as §1"}}, "note": "Like-named read-outs stand apart in the source and are kept apart here."}
{"smiles": "CCCCCCCC(=O)N[C@H](CN1CCCC1)[C@H](O)c1ccc2c(c1)OCCO2", "note": "[Formula (I) Hemitartrate]", "values": [{"measurement": "IC50", "setting": "[1]", "value": 1600, "unit": "µM"}, {"measurement": "inhibition of sucrase", "setting": "[2]; concentrations up to 2500 μM", "value": "No detectable inhibition"}, {"measurement": "Ki", "setting": "[2]; read-out: Enzyme specificities, Ki: Sucrase inhibition", "value": "> 10", "unit": "µM"}, {"measurement": "IC50", "setting": "[3]; K562 cells, 72 h incubation, printed range 14-34 nM, read-out: mean IC50 for inhibiting the cell surface presentation of GM1", "value": 0.024, "unit": "µM"}, {"measurement": "IC50", "setting": "[3]; Table 8, GM1 in K562 cells, read-out: Substrate inhibition potency (in vitro IC50)", "value": "~0.024", "unit": "µM"}, {"measurement": "cellular toxicity", "setting": "[3]; K562 cells, up to the highest dose (0.6-1000 nM), 72 h", "value": "No overt cellular toxicity"}, {"measurement": "IC50", "setting": "[4]; Mus musculus, 72 h incubation, printed range 12-48 nM, read-out: mean IC50 for inhibiting the cell surface presentation of GM3", "value": 0.029, "unit": "µM"}, {"measurement": "cellular toxicity", "setting": "[4]; up to the highest dose (0.6-1000 nM), 72 h", "value": "No overt cellular toxicity"}, {"measurement": "inhibition of cytosolic debranching enzyme (α-1,6-glucosidase)", "setting": "[5]; concentrations up to 2500 μM", "value": "No detectable inhibition"}, {"measurement": "IC50", "setting": "[5]; read-out: Enzyme specificities, IC50: Glycogen debranching enzyme", "value": "> 2500", "unit": "µM"}]}
